Assay results: US20080274976A1 (priority 2002, published 2008)
Where a SMILES comes first, the peptide text is derived from it. Bridges are numbered along the chain shown (N, C = ends). [ ]: non-standard residue; d: D form. Hyp = O=C(O)[C@@H]1C[C@@H](O)CN1

Legend:
[1] = system: TSha1 K^+ channel; type: cell-based, trout
[2] = biological target: Shaker-Δ6-46 (Drosophila melanogaster, UniProt P08510, DEL6-46); type: cell-based
Sequence of Shaker-Δ6-46 (P08510 1-655 with tags or gaps DEL6-46): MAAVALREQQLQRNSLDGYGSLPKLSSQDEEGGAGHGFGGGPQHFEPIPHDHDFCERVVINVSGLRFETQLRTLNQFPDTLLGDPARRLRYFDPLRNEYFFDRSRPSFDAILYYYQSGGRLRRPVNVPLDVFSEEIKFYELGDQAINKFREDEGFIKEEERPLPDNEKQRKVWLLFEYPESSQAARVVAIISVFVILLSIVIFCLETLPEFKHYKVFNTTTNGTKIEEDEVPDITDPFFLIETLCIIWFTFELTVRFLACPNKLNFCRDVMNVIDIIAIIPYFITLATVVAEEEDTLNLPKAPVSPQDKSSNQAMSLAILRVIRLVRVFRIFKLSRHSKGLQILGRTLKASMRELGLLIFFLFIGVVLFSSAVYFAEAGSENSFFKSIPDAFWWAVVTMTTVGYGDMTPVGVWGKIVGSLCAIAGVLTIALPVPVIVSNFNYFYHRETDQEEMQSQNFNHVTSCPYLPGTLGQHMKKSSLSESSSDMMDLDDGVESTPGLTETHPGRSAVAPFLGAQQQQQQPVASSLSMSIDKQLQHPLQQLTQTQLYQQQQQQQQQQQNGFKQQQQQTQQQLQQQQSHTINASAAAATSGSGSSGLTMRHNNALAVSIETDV

Q: How did the “k^(C)on, times higher than in the Shaker-Δ6-46 channel” value [1] turn out when `CC(C)C[C@@H]1NC(=O)[C@H](CO)NC(=O)[C@@H]2CSSC[C@@H]3NC(=O)[C@@H]4C[C@@H](O)CN4C(=O)[C@H](CC(N)=O)NC(=O)[C@H](CCCNC(=N)N)NC(=O)[C@H](CCCCN)NC(=O)[C@H](CSSC[C@H](NC(=O)[C@H](CO)NC(=O)[C@@H]4C[C@@H](O)CN4C(=O)[C@@H](N)CC(C)C)C(=O)N2)NC(=O)[C@H](C)NC(=O)[C@@H]2C[C@@H](O)CN2C(=O)[C@H](C(C)C)NC(=O)[C@@H]2C[C@@H](O)CN2C(=O)[C@H](CSSC[C@@H](C(=O)N[C@H](C(N)=O)[C@@H](C)O)NC3=O)NC(=O)[C@H](CC(C)C)NC(=O)[C@H](CCCNC(=N)N)NC(=O)[C@H](CC(C)C)NC(=O)[C@H](CC(N)=O)NC1=O` [κM-conotoxin RIIIK, LOSCCSLNLRLCOVOACKRNOCCT-NH2] (H-L[Hyp]SCCSLNLRLC[Hyp]V[Hyp]ACKRN[Hyp]CCT-NH2; disulfide 4-17, 5-22, 12-23) was run?
A: The value was “about four”.

Q: What about the “k^(O)off for Tsha1, times smaller than in the Shaker-Δ6-46 channel” value [1] of the same molecule?
A: Its value is “about 20 times”.

Q: What about the “k^(O)on in Tsha1, times higher than in the Shaker-Δ6-46 channel” value [1] of the same molecule?
A: The value was “three”.

Q: What about the “affinity for the open state (0 mV), times lower compared to the closed state” value [2] of the same molecule?
A: The value was “about three to four”.

Q: And the “k^(C)off” value [2]?
A: The value was 6.0 ± 3.0 s⁻¹.

Q: And the “k^(C)on” value [2]?
A: The value was 4e+06 ± 700000 M⁻¹ s⁻¹.

Q: What about the “k^(O)off” value [2] of the same molecule?
A: Its value is 90 ± 30 s⁻¹.

Q: And the “k^(O)on” value [2]?
A: Its value is 3e+07 ± 7e+06 M⁻¹ s⁻¹.
